Patent publication US20140249293A1, “Absent and Rare Peptides and Therapeutic Uses Thereof” (Boise State University, priority 2012, published 2014)
Read-outs that look alike come from different tables or passages of the source. Ends that are not written are not given here.

Assays:
[1] = tested on: Normal (non-cancer) human lung fibroblast cells (WI-38); assay: MTT assay of WI-38 cells; format: cell-based; details: WI-38 normal fibroblasts, treated 1 hour, MTT 4 hours
Experimental: Normal (non-cancer) human lung fibroblast cells (WI-38) were also treated with the 9R, 9S1, and 120 peptides. WI-38 cells were treated with the peptides for 1 hour and followed by MTT for 4 hours. Although the treated cells show no decrease in MTT absorbance, this may have been due to the cells being plated at lower concentration, and may not have been actively dividing.

[2] = tested on: mice; details: cited from earlier work
[3] = tested on: LnCaP cells; details: for IC50: 48 h
Experimental: LnCaP cells were treated with peptides 9R, 9S1, 120 (SEQ ID NO: 120) and a vehicle control. LnCaP cells were treated with the peptides for 48 hours, and incubated with MTT for 4 hours. For background level of absorbance, media alone was measured on the plate. […] Several concentrations of peptides were used to determine the IC50 of these peptides.
These cells were treated with an identical concentration (30 μM) of peptoprime peptide 120.

[4] = tested on: LnCaP cells; format: cell-based; details: 24 h
Source text: The HCS MITOCHONDRIAL HEALTH KIT™ (available from Invitrogen) includes a dye that is taken up by healthy, actively respiring mitochondria. The uptake of this dye can be visualized with fluorescent confocal microscopy. FIGS. 9A-9C show control LnCaP cells treated only with the vehicle control (i.e., no peptide). The Hoechst dye stained nuclei of cells, whether they were alive or dead (Excitation/Emission maxima—Hoechst 33342: 350/461 nm). FIG. 9A is a panel showing all nuclei stained with Hoechst dye. FIG. 9B is a panel showing healthy mitochondria stained with MitoHealth dye. FIG. 9C is a panel showing the merged images of 9A and 9B. The mitochondrial health dye incorporated into the cells depends on mitochondrial membrane potential (excitation/emission maxima—MitoHealth stain: 550/580 nm). The HCS MITOCHONDRIAL HEALTH KIT™ (Invitrogen) was developed for simultaneous quantitative measurements of two cell health parameters in the same cell: mitotoxicity and cytotoxicity. The MitoHealth stain accumulated in mitochondria in live cells proportional to the mitochondrial membrane potential.
A range of peptide concentrations was applied to the LnCap cells. […] The cells were treated for 24 hrs.
A range of peptide concentrations was used to treat LnCap cells. […] The cells were incubated with peptide for 24 hrs.

[5] = tested on: paclitaxel-resistant LnCap cells; assay: MTT assay of paclitaxel-resistant LnCap cells (reversal of paclitaxel resistance); format: cell-based; details: paclitaxel alone, even at 600 μM (data not shown)
Experimental: The 9R peptide (SEQ ID NO: 200; labeled “9” in FIG. 16) was tested for its ability to reverse paclitaxel (TAXOL™) resistance in paclitaxel-resistant LnCap cells.
Paclitaxel-resistant LnCaP cells were treated with the peptides for 120 hours, and incubated with MTT for 4 hours. The paclitaxel-resistant LnCap cells were resistant to paclitaxel even at 600 μM concentration (data not shown). Referring to FIG. 16, the paclitaxel-resistant LnCap cells were resistant to 9R at the 100 μM level (labeled **). However, the combination of paclitaxel (at little as 30 nM) and 9R (at little as 5 μM) killed the paclitaxel-resistant LnCap cells (labeled ***).

Row | Compound | MTT absorbance [1] | IC50 [4] [µM] | IC50 [3] [µM] | further results
1 | WFMHW [Peptide 120, WFMHW] | no effect | – | – | –
2 | AQGV | – | – | – | recuperation after lethal exposure to radiation [2]: shown promise in accelerating the recuperation
3 | OO [peroxide, Hydrogen peroxide, reference compound] | – | – | – | MTT absorbance value compared with control treatment cells ([3]; LnCaP, treated 48 hours, MTT 4 hours): marked decrease
4 | WCMNW [Peptide 9S1, WCMNW] | no decrease | 30 | ~30 | –
5 | RRRRRNWMWC [Peptide 9R, RRRRRNWMWC] | no decrease | 100 | ~50 | –
6 | CC(=O)O[C@H]1C(=O)[C@@]2(C)[C@H]([C@H](OC(=O)c3ccccc3)[C@]3(O)C[C@H](OC(=O)[C@H](O)[C@@H](NC(=O)c4ccccc4)c4ccccc4)C(C)=C1C3(C)C)[C@]1(OC(C)=O)CO[C@@H]1C[C@@H]2O [paclitaxel] | – | – | – | sensitivity of paclitaxel-resistant LnCap cells (MTT) [5]: resistant
